Reference: patent US7273848B2, “Apolipoprotein A-I agonists and their use to treat dyslipidemic disorders” (priority 1997, dated 2007)
No end group written: not given here.

Assay: Lipid binding by fluorescence spectroscopy
Method: The lipid binding properties of the peptides synthesized in Section 6, supra, were tested by fluorescence measurements with labeled peptides, in the present case Tryptophane (Trp or W) or Naphtylalanine (Nal). The fluorescence spectra were recorded on a Fluoromax from Spex (Jobin-Yvon) equipped with a Xenon lamp of 150 W, two monochromators (excitation and emission), a photomultiplier R-928 for detection sensitive in the red up to 850 nm and a thermoelectric magnetic stirred cell holder. Quartz Suprasil cuvettes were used for measurements in the micromolar concentration range. A device of variable slits (from 0.4 to 5 nm) allows modulation of the incident and emitted intensities according to the concentration of peptide used. The reported values are in general the average of between 2 to 4 spectra. The peptide concentration is determined by absorption spectrometry on a Philips PU 8800 using the absorption band of the Trp (ε280 nm=5,550 M^−1 cm^−1 in Tris buffer) or the Nal (ε224 nm =92,770 M^−1 cm^−1 in methanol)
Fluorescence spectra of the peptides were recorded between 290 nm and 450 nm in Tris-HCl buffer (20 mM, pH=7.5), in the presence and absence of lipidic vesicles. The small unilamellar vesicles were formed after rehydration in buffer of the lyophilized phospholipids, dispersion and tip sonification under a N2 stream. The lipids used were either Egg PC/Chol. (20:1) or POPC/Chol. (20:1). The spectra were recorded at a peptide concentration of 2 μM and at a temperature of 37° C. The fluorescence reference standard in the case of Trp was N-acetyltryptophanylamide (NATA).
Lipid binding studies were done through progressive lipidic vesicle addition to the peptide in solution at 2 μM (slits: 5 nm in excitation and 1.5 nm in emission). Dilution effects were taken into account for the fluorescence intensity determination. The lipid concentrations were varied from 10 to 600 μM and the molar ratio of lipid to peptide (Ri) was varied from 5 to 300. The wavelength of excitation was set at 280 nm for both Trp and Nal.
The data were directly recorded and treated by an IBM-PC linked to the spectrofluorimeter through the DM3000F software from Spex. The spectra were corrected by substraction of the solvent contribution and by application of a coefficient given by the constructor taking into account the variation of the photomultiplier response versus the wavelength.
The fluorescence spectra of the peptides were characterized by the wavelength at their maximum of fluorescence emission and by their quantum yield compared to NATA in the case of peptides labeled with a tryptophane. The process of binding to lipids was analyzed by calculating the shift of the wavelength at the maximum of fluorescence emission, (λmax), and the variation of the relative fluorescence intensity of emission versus the lipid concentration. The relative fluorescence intensity is defined as the following ratio: (I-I0)λmax/I0λmax. I and I0 are both measured at the (λmax) corresponding to the initial free state of the peptide, i.e., without lipids. I is the intensity at a defined lipid to peptide ratio and I0 is the same parameter measured in absence of lipids. The absence of these variations is relevant of the absence of interactions of the peptides with the lipids.

PVLELFENLWERLLDALQKKLK [peptide 149]
lipid to peptide molar ratio at which burying of the tryptophane residue is maximal (EPC/Chol (20:1) SUVs): about 30
λmax (nm) (Ri 0 (buffer, no lipids), 2 μM): 347 nm
I/Io (Ri 0, 2 μM peptide, 37° C.): 0
I/Io (Ri 5): 19.7
λmax (nm) (Ri 5): 334.5 nm
I/Io (Ri 10): 31.4
λmax (nm) (Ri 10): 329 nm
I/Io (Ri 30): 49.4
λmax (nm) (Ri 30): 325.5 nm
I/Io (Ri 60): 64.3
λmax (nm) (Ri 60): 325 nm
I/Io (Ri 100): 77
λmax (nm) (Ri 100): 325.5 nm
I/Io (Ri 200): 84
λmax (nm) (Ri 200): 325 nm
wavelength for the tryptophane maximum fluorescence emission after binding (bound to EPC/Chol (20:1) SUVs): 325 nm
lipid binding (in words) (small unilamellar vesicles): binds very effectively
